Data published in patent publication US8022091B2, “Triazole derivative” (Taisho Pharmaceutical Co., Ltd., priority 2006, dated 2011).
pIC50: −log10 of the molar value.

Key:
human Edg-1 (S1P1) = target: T1, human Edg-1 (S1P1) (Homo sapiens, UniProt P21453); assay: S1P1 binding assay: inhibition of [33P]-S1P binding to membrane fraction of HEK-293 cells transferred with the human Edg-1 (S1P1) gene; settings: for pIC50: [33P]-S1P 0.1 nM, human Edg-1 (S1P1) HEK-293 membrane fraction, 1 h at 30° C., read-out: IC50 (concentration at which binding in the absence of the test compound was inhibited by 50%)
T1 construct: expressed in transfected cells; host or cells: HEK-293
Procedure, shortened: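 With 0.1 nM [33P]-S1P and compound (10^−5M single point, or a concentration range for IC50) in 0.1% DMSO, membrane fractions from human Edg-1-expressing HEK-293 cells were treated for one hour at 30° C in 20 mM Tris-HCl pH 7.4 with NaF, deoxypyridoxine and BSA. Bound label was measured after filtration, with untransfected-cell background subtracted.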

[1] = test compound 10 μM, inhibition of [33P]-S1P binding, membrane fraction
[2] = test compound at 10 μM, inhibition of [33P]-S1P binding to the membrane fraction of HEK-293 cells expressing human Edg-1 (S1P1)

T1 sequence (P21453 whole entry): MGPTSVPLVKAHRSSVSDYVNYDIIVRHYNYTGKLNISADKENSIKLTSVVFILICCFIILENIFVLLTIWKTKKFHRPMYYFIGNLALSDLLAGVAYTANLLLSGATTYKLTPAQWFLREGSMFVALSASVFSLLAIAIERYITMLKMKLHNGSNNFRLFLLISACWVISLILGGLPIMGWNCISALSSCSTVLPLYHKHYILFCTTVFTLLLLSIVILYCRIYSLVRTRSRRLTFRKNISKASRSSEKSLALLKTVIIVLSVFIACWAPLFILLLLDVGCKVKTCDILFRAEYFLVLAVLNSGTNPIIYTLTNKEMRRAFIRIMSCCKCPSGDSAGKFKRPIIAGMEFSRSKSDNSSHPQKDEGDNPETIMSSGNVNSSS

Structure (SMILES)	melting point	inhibition at 10 µM (human Edg-1 (S1P1); [1])	pIC50 (human Edg-1 (S1P1))	inhibition at 10 µM (human Edg-1 (S1P1); [2])
CCn1c(Oc2ccc(F)cc2)nnc1C(C)(C)NS(=O)(=O)c1ccc(Cl)c(Cl)c1 [Compound 682]	228 to 228.5 °C	76.6%	–	–
CCn1c(Oc2cccc(N3CCN(C)CC3)c2)nnc1[C@@H](C)NS(=O)(=O)c1ccc(C(F)(F)F)cc1 [Compound 142]	183 to 184 °C	–	≥ 7.46	98.1%
CCn1c(Oc2cccc(N3CCN(C)CC3)c2)nnc1[C@@H](C)NS(=O)(=O)c1ccc2cccc(Cl)c2c1 [Compound 666]	143.5 to 144.5 °C	97.9%	≥ 8.00	–
CCn1c(Oc2cc(C(F)(F)F)n(C)n2)nnc1[C@@H](C)NS(=O)(=O)c1ccc(Cl)c(Cl)c1 [Compound 77]	123 to 127 °C	–	–	99.7%
CCn1c(Oc2ccc(OC)cc2)nnc1[C@@H](C)NS(=O)(=O)c1ccc2c(Cl)cccc2c1 [Compound 138]	167.5 to 169 °C	–	≥ 8.00	99.6%
CCn1c(Oc2cccc(N3CCN(C)CC3)c2)nnc1[C@@H](C)NS(=O)(=O)/C=C/c1ccccc1 [Compound 146]	121 to 122 °C	–	7.92	102%
CCn1c(Oc2ccc(Cl)cc2)nnc1[C@@H](C)NS(=O)(=O)c1ccc2c(Cl)cccc2c1 [Compound 139]	174 to 177 °C	–	≥ 8.00	101%
CCn1c(Oc2cccc(N3CCN(C)CC3)c2)nnc1[C@@H](C)NS(=O)(=O)c1ccc(Cl)c(Cl)c1Cl [Compound 143]	144 to 145 °C	–	8.14	99.9%
CCn1c(Oc2cccc(NC=O)c2)nnc1[C@@H](C)NS(=O)(=O)c1ccc(Cl)c(Cl)c1 [Compound 90, 3,4-Dichloro-N-[(R)-1-[4-ethyl-5-(3-formylamino-phenoxy)-4H-[1,2,4]triazol-3-yl]-ethyl]-benzenesulfonamide]	168 to 170 °C	–	–	99%
CCn1c(Oc2cccc(N3CCC3)c2)nnc1[C@@H](C)NS(=O)(=O)c1ccc(Cl)c(Cl)c1 [Compound 75]	177 to 179 °C	–	≥ 8.00	95%
Cc1ccc(Oc2nnc([C@@H](C)NS(=O)(=O)c3ccc(Cl)c(Cl)c3)n2C(C)C)cc1 [Compound 60]	192.5 to 195 °C	–	–	98.9%
Cc1ccc(Oc2nnc([C@@H](C)NS(=O)(=O)c3ccc(Cl)c(Cl)c3)n2C)cc1 [Compound 58]	181 to 183 °C	–	–	99.7%
CCn1c(Oc2ccccc2C)nnc1[C@@H](C)NS(=O)(=O)c1ccc(Cl)c(Cl)c1 [Compound 4]	198.5 to 200.5 °C	–	–	95.7%
CCn1c(Oc2cc3nc(C)cc(C)n3n2)nnc1[C@@H](C)NS(=O)(=O)c1ccc(Cl)c(Cl)c1 [Compound 96]	191 to 194 °C	–	–	78.7%
CCn1c(Oc2ccc(-c3ccccc3)cc2)nnc1[C@@H](C)NS(=O)(=O)c1ccc(Cl)c(Cl)c1 [Compound 29]	177 to 178.5 °C	–	–	101%
CCn1c(Oc2ccc(C)cc2)nnc1[C@@H](C)NS(=O)(=O)c1ccc(Cl)c(Cl)c1 [Compound 3]	183.5 to 187.5 °C	–	8.38	98.7%
CCn1c(Oc2cccc(C3CCN(C(C)C)CC3)c2)nnc1[C@@H](C)NS(=O)(=O)c1ccc(Cl)c(Cl)c1 [Compound 108]	175 to 180 °C	–	7.74	101%
CCn1c(Oc2ccc3c(c2)NC(=O)CC3)nnc1[C@@H](C)NS(=O)(=O)c1ccc(Cl)c(Cl)c1 [Compound 74]	218.5 to 227 °C	–	7.82	105%
CCn1c(Oc2cccc(N(C(C)C)C(C)C)c2)nnc1[C@@H](C)NS(=O)(=O)c1ccc(Cl)c(Cl)c1 [Compound 107]	159 to 162 °C	–	≥ 8.00	104%
CCn1c(Oc2cccc(N3CCN(C)CC3)c2)nnc1[C@@H](C)NS(=O)(=O)c1ccc2c(C#N)cccc2c1 [Compound 692]	227 to 229 °C	98.5%	8.29	–

Structure (SMILES)	melting point	inhibition at 10 µM (human Edg-1 (S1P1); [1])	pIC50 (human Edg-1 (S1P1))	inhibition at 10 µM (human Edg-1 (S1P1); [2])
CCn1c(Oc2cc(C)cc(C)c2)nnc1[C@@H](C)NS(=O)(=O)c1ccc(Cl)c(Cl)c1 [Compound 19]	145 to 150 °C	–	–	97.9%
CCn1c(Oc2cc(C)ccn2)nnc1[C@@H](C)NS(=O)(=O)c1ccc(Cl)c(Cl)c1 [Compound 66]	183 to 190 °C	–	–	93.4%
CCn1c(Oc2ccc3cc[nH]c3c2)nnc1[C@@H](C)NS(=O)(=O)c1ccc(C)c(Cl)c1 [Compound 132]	95 to 104 °C	–	≥ 8.00	99.5%
CCn1c(Oc2cccc(NC(C)=O)c2)nnc1[C@@H](C)NS(=O)(=O)c1ccc(Cl)c(Cl)c1 [Compound 84]	160 to 165 °C	–	–	100%
CCCc1ccc(Oc2nnc([C@@H](C)NS(=O)(=O)c3ccc(Cl)c(Cl)c3)n2CC)cc1 [Compound 25]	155 to 156 °C	–	≥ 7.46	97.5%
CCn1c(Oc2cccc(N3CCN(C(C)C)CC3)c2)nnc1[C@@H](C)NS(=O)(=O)c1ccc(Cl)c(Cl)c1 [Compound 94]	190 to 192 °C	–	≥ 8.00	106%
CCn1c(Oc2ccc(N(C)C)cc2)nnc1[C@@H](C)NS(=O)(=O)c1ccc(Cl)c(Cl)c1 [Compound 43]	182.5 to 185 °C	–	≥ 7.46	99.8%
CCn1c(Oc2cccc(N3CCN(CCN(C)C)CC3)c2)nnc1[C@@H](C)NS(=O)(=O)c1ccc(Cl)c(Cl)c1 [Compound 83]	170 to 173 °C	–	8.09	101%
CCn1c(Oc2cc(C)cc(C)n2)nnc1[C@@H](C)NS(=O)(=O)c1ccc(Cl)c(Cl)c1 [Compound 95]	205 to 208.5 °C	–	–	92.4%
CCn1c(Oc2cccc(N3CCN(C)CC3)c2)nnc1[C@@H](C)NS(=O)(=O)c1cc(F)cc(Cl)c1C [Compound 145]	150 to 152 °C	–	≥ 7.46	101%
CCn1c(Oc2ccc(F)cc2)nnc1[C@@H](C)NS(=O)(=O)c1ccc(Br)c(Br)c1 [Compound 104]	187 to 187.5 °C	–	–	95.2%
CCn1c(Oc2ccc(N3CCN(C)CC3)cc2)nnc1[C@@H](C)NS(=O)(=O)c1ccc(Cl)c(Cl)c1 [Compound 52]	203 to 205 °C	–	–	100%
CCn1c(Oc2ccc3c(c2)CCC(=O)N3)nnc1[C@@H](C)NS(=O)(=O)c1ccc(Cl)c(Cl)c1 [Compound 68]	212 to 223 °C	–	–	101%
CCOc1ccc2c(Oc3nnc([C@@H](C)NS(=O)(=O)c4ccc(Cl)c(Cl)c4)n3CC)csc2c1 [Compound 117]	153.5 to 155.5 °C	–	–	87.1%
CCn1c(Oc2ccc(C(C)C)cc2)nnc1[C@@H](C)NS(=O)(=O)c1ccc(Cl)c(Cl)c1 [Compound 39]	176 to 178 °C	–	≥ 8.00	98.5%
CCn1c(Oc2ccc(F)cc2)nnc1[C@@H](C)NS(=O)(=O)c1ccc2ccccc2c1 [Compound 122]	167 to 170 °C	–	≥ 7.46	81.9%
CCn1c(Oc2cccc(C(=O)O)c2)nnc1[C@@H](C)NS(=O)(=O)c1ccc(Cl)c(Cl)c1 [Compound 113, 3-[5-[(R)-1-(3,4-Dichlorobenzenesulfonylamino)-ethyl]-4-ethyl-4H-[1,2,4]triazol-3-yloxy]-benzoic acid]	183 to 185 °C	–	–	74.2%
CCn1c(Oc2cccc(Cl)c2)nnc1[C@@H](C)NS(=O)(=O)c1ccc(Cl)c(Cl)c1 [Compound 9]	145 to 148 °C	–	–	100%
CCn1c(Oc2ccc(Oc3ccccc3)cc2)nnc1[C@@H](C)NS(=O)(=O)c1ccc(Cl)c(Cl)c1 [Compound 22]	163 to 167.5 °C	–	7.85	95.4%
